Results as given in patent US11491132B2, “Methods for treating thrombocytopenia” (Enzychem Lifesciences Corporation, priority 2014, dated 2022).

Legend:
[1] = system: C3; experiment: C3 expression in IL-4/TNF-α treated HMC-1 cells, RT-PCR; assay type: cell-based, human; details: HMC-1 cells treated with IL-4 and TNF-α; PLAG 0.1 and 1 μg/mL pre-treatment, or S6I
Procedure: A blood cell line, HMC-1 (human mast cell, American Type Culture Collection, ATCC, Rockville, Md.) is incubated and maintained at 37° C. under 5% CO2 humid conditions. The medium is IMDM (Life Technologies, Karlsruhe, Germany) containing 10% Fetal Calf Serum (FCS, HyClone, Logan, Utah), 2 mM […], 100 μg/ml penicillin, 100 μg/ml streptomycin (Life Technologies). The cultured HMC-1 cells (1×10^6 cell/ml) are pre-treated with 0.1 and 1 μg/mL concentration of PLAG, followed by treating with IL-4 (5 ng) and/or TNF-α (10 ng) to induce cellular activities.
The expressed C3 and its mRNA level change are observed by using RT-PCR (Reverse Transcriptase Polymerase Chain Reaction). The RT-PCR is carried out as follows: the total RNA is separated by the standard protocol and cDNA is synthesized using AccuScript High Fidelity 1st Strand cDNA Synthesis Kit (Stratagene) by the manufacturer's instructions. Two-step RT-PCR reaction is conducted using Oligo-dT primer and reverse transcriptase, pair of primer and Taq polymerase (Takara, Shiga, Japan). […] The product of PCR is separated using 1.5% agarose gel, dyed with ethidium bromide (EtBr), and visualized with Gel Doc 2000 UV trans-illuminator (Bio-Rad Laboratories, Hercules, Calif., USA), and the experimental data is analyzed using Quantity One software (Bio-Rad Laboratories).

[2] = system: C3; experiment: C3 expression in HepG2 cell line, RT-PCR of mRNA; assay type: cell-based, human; details: HepG2 cells, S6I 10 and 100 microgram/ml, relative to PLAG 1 and 10 microgram/ml
Procedure: A liver cell line, HepG2 (American Type Culture Collection, ATCC, Rockville, Md.), is incubated and maintained at 37° C., 5% CO2 humid atmosphere in DMEM medium. When HepG2 cells, which are known to produce complement in culture, are treated with PLAG, the activity of complement is reduced effectively, as confirmed by RT-PCR of mRNA. In the RT-PCR, 5×10^5 number of HepG2 cells/ml are distributed into 12 well plates and induced C3 for 12 hours with 10% FCS. Then PLAG is added and further cultured for 2 hours. Cells are harvested and mRNA is isolated and RT-PCR is carried out with specific primer of C3; GAPDH is used as an internal control.

[3] = system: white blood cells and neutrophils; experiment: PLAG in combination with G-CSF in cyclophosphamide-treated mouse model; assay type: in vivo, mice; details: cyclophosphamide 100 mpk i.p. ten days; G-CSF 0.25 mpk i.p.; PLAG 25 mpk p.o.
Text: Mice receive cyclophosphamide (100 mpk, i.p.) for a period of ten days, with or without G-CSF (0.25 mpk, i.p.) or G-CSF (0.25 mpk, i.p.) plus PLAG (25 mpk, p.o.): […]

| Compound | expression of C3 [1] | inhibition of C3 expression (RT-PCR) [2] | Neutrophils [3] [k/μl] | White blood cells (WBCs) [3] [k/μl] |
| --- | --- | --- | --- | --- |
| NC(=O)c1cnc(NCCc2ccc(O)c(Cl)c2)nc1NCc1ccccc1 [S6I, reference compound] | suppresses expression of C3 | comparable |  |  |
| G-CSF: Granulocyte-colony stimulating factor, a glycoprotein that stimulates hematopoietic precursor cells in the bone marrow |  |  | 4.36 | 5.37 |
